According to article PMC4965013, “Open Source Drug Discovery with the Malaria Box Compound Collection for Neglected Diseases and Beyond” (PLoS Pathogens, 2016):

Legend:
P. falciparum = test: EC50 listed in S2 Table Metabolomics (used to set the concentration tested); assay type: cell-based; details: Plasmodium falciparum; EC50 used for Factor_XEC50 in metabolomics; read-out: EC50_nM
[1] = system: P. falciparum 3D7 trophozoites; test: Metabolomic fingerprint profiling LC-MS; assay type: cell-based, Plasmodium falciparum; set-up: UDP-D-glucose / ADP-D-glucose: unit not given here; details: for Acetyllysine / N-acetyl-L-ornithine / N-carbamoyl-L-aspartate / NADPH / dAMP / dCMP / dTDP / dTMP / dTTP / dihydroorotate / orotate / DLH / DLS/SDL/SID / PD / PEE / PVNF / 3-phosphoglycerate / ADP-D-glucose / ATP / CDP / D-sedoheptulose-1/7-phosphate / FAD / GMP / NAD+ / NADP+ / Octoluse Bisphosphate / Pyroglutamic acid / UDP-D-glucose / UDP-D-glucuronate / UDP-N-acetyl-glucosamine / UDP / UMP / UTP / a-ketoglutarate / citrate/isocitrate / cytidine / dATP / dGMP/AMP / fumarate / glucose-1/6-phosphate / glycerate / guanine / guanosine / hypoxanthine / indole / inosine / nicotinate / ornithine / phosphoenolpyruvate / pyruvate / ribose-phosphate / sarcosine/alanine / sn-glycerol-3-phosphate / succinate/methylmalonic acid / uridine / xanthosine: S2 Table Metabolomics; for Acetyllysine: metabolite Acetyllysine; for N-acetyl-L-ornithine: metabolite N-acetyl-L-ornithine; for N-carbamoyl-L-aspartate: metabolite N-carbamoyl-L-aspartate; for NADPH: metabolite NADPH; for dAMP: metabolite dAMP; for dCMP: metabolite dCMP; for dTDP: metabolite dTDP; for dTMP: metabolite dTMP; for dTTP: metabolite dTTP; for dihydroorotate: metabolite dihydroorotate; for orotate: metabolite orotate; for DLH: peptide DLH; for DLS/SDL/SID: peptide DLS/SDL/SID; for PD: peptide PD; for PEE: peptide PEE; for PVNF: peptide PVNF; for 3-phosphoglycerate: metabolite 3-phosphoglycerate; for ADP-D-glucose: metabolite ADP-D-glucose; for ATP: metabolite ATP; for CDP: metabolite CDP; for CDP / D-sedoheptulose-1/7-phosphate / GMP / Octoluse Bisphosphate / UDP / UMP / UTP / citrate/isocitrate / dGMP/AMP / fumarate / glucose-1/6-phosphate / glycerate / guanine / guanosine / inosine / pyruvate / sarcosine/alanine / succinate/methylmalonic acid / uridine / xanthosine: change in metabolite level after compound treatment; for D-sedoheptulose-1/7-phosphate: metabolite D-sedoheptulose-1/7-phosphate; for FAD: metabolite FAD; for GMP: metabolite GMP; for NAD+: metabolite NAD+; for NADP+: metabolite NADP+; for Octoluse Bisphosphate: metabolite Octoluse Bisphosphate; for Pyroglutamic acid: metabolite Pyroglutamic acid; for UDP-D-glucose: metabolite UDP-D-glucose; for UDP-D-glucuronate: metabolite UDP-D-glucuronate; for UDP-N-acetyl-glucosamine: metabolite UDP-N-acetyl-glucosamine; for UDP: metabolite UDP; for UMP: metabolite UMP; for UTP: metabolite UTP; for a-ketoglutarate: metabolite a-ketoglutarate; for citrate/isocitrate: metabolite citrate/isocitrate; for cytidine: metabolite cytidine; for dATP: metabolite dATP; for dGMP/AMP: metabolite dGMP/AMP; for fumarate: metabolite fumarate; for glucose-1/6-phosphate: metabolite glucose-1/6-phosphate; for glycerate: metabolite glycerate; for guanine: metabolite guanine; for guanosine: metabolite guanosine; for hypoxanthine: metabolite hypoxanthine; for indole: metabolite indole; for inosine: metabolite inosine; for 2_3-Diphosphoglyceric acid / 4-phosphopantothenate / 6-phospho-D-gluconate / FMN / IMP / Pyrophosphate / Sedoheptoluse bisphosphate / cyclic-AMP / glutathione disulfide / lactate / myo-inositol: metabolite level change after treatment; for nicotinate: metabolite nicotinate; for ornithine: metabolite ornithine; for phosphoenolpyruvate: metabolite phosphoenolpyruvate; for pyruvate: metabolite pyruvate; for ribose-phosphate: metabolite ribose-phosphate; for sarcosine/alanine: metabolite sarcosine/alanine; for sn-glycerol-3-phosphate: metabolite sn-glycerol-3-phosphate; for succinate/methylmalonic acid: metabolite succinate/methylmalonic acid; for uridine: metabolite uridine; for xanthosine: metabolite xanthosine

## Cc1ccc(N2C(=O)C3C(C2=O)C2(c4ccccc4)C(=O)C3(c3ccccc3)C(c3ccccc3)=C2c2ccccc2)cc1 (stereo not shown) [MMV666062]
P. falciparum
  EC50: 0.282 µM
[1]
  Acetyllysine: -0.1709
  N-acetyl-L-ornithine: -0.324
  N-carbamoyl-L-aspartate: -0.2951
  NADPH: -0.2149
  dAMP: -0.4875
  dCMP: -0.7263
  dTDP: -0.1985
  dTMP: -0.6991
  dTTP: -0.2344
  dihydroorotate: -0.213
  orotate: -0.7199
  DLH: -0.006238
  DLS/SDL/SID: -0.3315
  PD: -0.3487
  PEE: -0.01834
  PVNF: -0.09341
  3-phosphoglycerate: -1.0087
  ADP-D-glucose: -0.2764
  ATP: -0.1502
  CDP: -0.3978
  D-sedoheptulose-1/7-phosphate: -0.4359
  FAD: -0.2118
  GMP: -0.3584
  NAD+: -0.2488
  NADP+: -0.1786
  Octoluse Bisphosphate: -0.3963
  Pyroglutamic acid: -0.08618
  UDP-D-glucose: -0.2942
  UDP-D-glucuronate: -0.1481
  UDP-N-acetyl-glucosamine: -0.3667
  UDP: -0.4806
  UMP: -0.3962
  UTP: -0.1426
  a-ketoglutarate: -0.4814
  citrate/isocitrate: -0.07191
  cytidine: -0.4412
  dATP: -0.199
  dGMP/AMP: -0.7601
  fumarate: -0.1898
  glucose-1/6-phosphate: 0.1468
  glycerate: -0.3247
  guanine: -0.8033
  guanosine: -0.4206
  hypoxanthine: -0.5014
  indole: -0.4173
  inosine: -0.516
  2_3-Diphosphoglyceric acid: -0.1968
  4-phosphopantothenate: -0.3798
  6-phospho-D-gluconate: -0.105
  FMN: -0.4755
  IMP: -0.5384
  Pyrophosphate: -0.0001746
  Sedoheptoluse bisphosphate: -0.4955
  cyclic-AMP: -0.438
  glutathione disulfide: -0.4046
  lactate: -0.3401
  myo-inositol: 0.6705
  nicotinate: -0.6806
  ornithine: -0.4373
  phosphoenolpyruvate: -0.3807
  pyruvate: -0.5819
  ribose-phosphate: -0.7488
  sarcosine/alanine: -0.5636
  sn-glycerol-3-phosphate: -0.1452
  succinate/methylmalonic acid: -0.2494
  uridine: -0.8945
  xanthosine: -0.2816

## COc1ccc(C2=C(c3ccc(OC)cc3)C3(c4ccccc4)C(=O)C2(c2ccccc2)C2C(=O)N(c4ccc(C)cc4)C(=O)C23)cc1 (stereo not shown) [MMV666101]
P. falciparum
  EC50: 0.148 µM
[1]
  Acetyllysine: -0.1129
  N-acetyl-L-ornithine: 0.1609
  N-carbamoyl-L-aspartate: -0.002224
  NADPH: -0.9507
  dAMP: -0.2629
  dCMP: 0.3804
  dTDP: 0.03996
  dTMP: 0.002701
  dTTP: 0.2425
  dihydroorotate: 0.3476
  orotate: -0.884
  DLH: 0.3443
  DLS/SDL/SID: 0.3548
  PD: 0.01018
  PEE: 0.2697
  PVNF: 0.3279
  3-phosphoglycerate: -0.07386
  ADP-D-glucose: 0.1248
  ATP: 0.5165
  CDP: 0.04064
  D-sedoheptulose-1/7-phosphate: 0.08624
  FAD: 0.1013
  GMP: 0.6118
  NAD+: -0.01164
  NADP+: 0.3941
  Octoluse Bisphosphate: 0.2807
  Pyroglutamic acid: 0.2222
  UDP-D-glucose: -0.02174
  UDP-D-glucuronate: 0.06413
  UDP-N-acetyl-glucosamine: 0.01073
  UDP: 0.07085
  UMP: 0.1142
  UTP: 0.03866
  a-ketoglutarate: -0.8357
  citrate/isocitrate: -1.04
  cytidine: 0.3993
  dATP: -0.09007
  dGMP/AMP: -0.1266
  fumarate: -0.05622
  glucose-1/6-phosphate: 0.03368
  glycerate: -0.6868
  guanine: -0.559
  guanosine: -0.9392
  hypoxanthine: -0.6138
  indole: -0.8533
  inosine: -0.8697
  2_3-Diphosphoglyceric acid: 0.4338
  4-phosphopantothenate: -0.011
  6-phospho-D-gluconate: 0.058
  FMN: 0.02064
  IMP: -0.3616
  Pyrophosphate: 0.3662
  Sedoheptoluse bisphosphate: 0.08206
  cyclic-AMP: -0.009901
  glutathione disulfide: 0.01065
  lactate: -0.9335
  myo-inositol: -1.462
  nicotinate: -1.016
  ornithine: -0.4187
  phosphoenolpyruvate: 0.02347
  pyruvate: -0.8543
  ribose-phosphate: -0.007312
  sarcosine/alanine: 0.06192
  sn-glycerol-3-phosphate: -0.02979
  succinate/methylmalonic acid: -0.01842
  uridine: -0.9813
  xanthosine: -0.2752
